US20230381142A1, “ANTILEISHMANIAL COMPOUNDS, COMPOSITIONS AND USE THEREOF” (TRUSTEES OF BOSTON UNIVERSITY, priority 2022, published 2023)
In brackets after ≈: the same amount, converted by molar mass.

Key:
[1] = Artificial membrane permeability (AMP); assay type: in vitro ADME; conditions: PAMPA, pH 7.4
Description: Passive permeability of compounds via rate of permeation through an artificial phospholipid membrane at pH 7.4 was measured in a high-throughput format, in duplicate. A solution of 1.8% phosphatidylcholine in 1% decane was added to a 96-well Millicell filter plate along with 250 μL of 50 mM phosphate buffer, pH 7.4 on the donor side, and 100 μL of the same buffer solution on the receiver side. The assay plate was shaken for 45 minutes before adding test compounds. Test compounds were then added to the filter plate and then incubated at room temperature with shaking for three hours. The donor and receiver solutions were next transferred to a 384-well plate for analysis by LC/MS.

human serum albumin = human serum albumin (Homo sapiens, UniProt P02768); experiment: Human serum albumin (HSA) binding, chromatographic; assay type: in vitro ADME
Description: The percentage of compound bound to human serum albumin was measured using a chromatographic method as described. Briefly, each compound was assayed on an immobilized HSA column and gradient retention times measured, with chromatographic peak detection by UV. Each retention time was then converted to a % HSA bound value using a calibration set of compounds with a known % HSA binding.

host THP-1 macrophages = experiment: GSK inMac assay, host cell toxicity readout (LD MAC); assay type: cell-based, human; conditions: Homo sapiens, THP-1, cytotoxicity against host THP-1 macrophages
Method in brief: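 MAC EC50 reflects THP-1 host cell counts, measured within GSK's inMac L. donovani infection assay that also scores intracellular amastigotes and infected-cell percentage.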

[2] = tested on: L. donovani intracellular amastigotes in B10R cells; experiment: UCSD L. donovani infection assay (Assay Conditions D); assay type: cell-based; conditions: Leishmania donovani
Method in brief: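 Compounds, either single-point at 10 μM or 10-point 2-fold series (3 technical, 2 biological replicates), were incubated 72 h at 37° C. with B10R host cells co-seeded with day-7 stationary L. donovani promastigotes (20:1). DAPI-stained nuclei imaging yielded intracellular parasite EC50 and host-cell CC50.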

[3] = Kinetic aqueous solubility by CLND; assay type: physicochemical; conditions: kinetic from dmso stock, high-throughput CLND
Description: Solubility of compounds using ChemiLuminescent Nitrogen Detection (CLND) was measured as described. Solubility of compounds using Charged Aerosol Detection (CAD) was measured as described. Solubility of solid compounds in Fasted Simulated Intestinal Fluid (FaSSIF) was measured as described.

HepG2 cells = experiment: HepG2 cytotoxicity; assay type: cell-based; conditions: Homo sapiens; toxicity against HepG2 cells
Description: Given the literature precedents described above and the apparent narrow tolerance for R^3 substitutions observed in the primary screen compounds, a thorough and methodical assessment was undertaken of tolerated groups at the three points of diversity (R^1/R^2/R^3) for the core. At this stage of the project, all analogues were assessed using a battery of assays performed in-house at GlaxoSmithKline. For antileishmanial activity, GSK's inMac assay was utilized. This assay provides two readouts of compound potency: average number of intracellular amastigotes per infected cell (AMMAC) EC50, percentage of infected cells per well (INFCELL) EC50, as well as a toxicity output derived from the number of host cells (MAC EC50). In addition, compounds were assessed for toxicity against HepG2 cells (HEPG2 EC50). Here, AMMAC EC50 values were focused on for relative potency assessments. […] It should be noted that for all compounds assessed in this project, the measured toxicity against THP-1 macrophages either equaled or exceeded that of HepG2 hepatocytes, therefore the MAC SI is used here as the more conservative estimate of therapeutic index.

[4] = tested on: L. donovani intracellular amastigotes infecting THP-1 macrophages; experiment: GSK intramacrophage L. donovani assay (LD AMMAC, inMac; Assay Conditions C); assay type: cell-based; conditions: Leishmania donovani; for IC50: THP-1; for EC50: growth inhibition of L. donovani intracellular amastigotes infecting THP-1 macrophages, read-out: LD AMMAC EC50
Method in brief: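 EC50 values come from counting amastigotes per infected THP-1 macrophage (AMMAC). Parallel read-outs give percentage of infected cells per well (INFCELL) and a macrophage-number toxicity EC50 (MAC).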

[5] = Property forecast index (PFI = ChromLogD7.4 + aromatic rings); assay type: physicochemical
Description: At the outset of the project, compound 1 was evaluated against GSK's established criteria for antileishmanial compound advancement (Table 2). Some of these assessments were performed on racemic 1, while chiral separation was also pursued of the 1 racemate to determine the active enantiomer. […] Based on this promising profile, it progressed into medicinal chemistry optimization to better understand structure-activity relationships (SAR) toward improved potency, as well as structure-property relationships (SPR) with an eye toward reducing PFI and plasma protein binding.

[6] = aqueous medium (not further specified)
[7] = aqueous (not further specified)

human serum albumin, sequence (P02768 25-609): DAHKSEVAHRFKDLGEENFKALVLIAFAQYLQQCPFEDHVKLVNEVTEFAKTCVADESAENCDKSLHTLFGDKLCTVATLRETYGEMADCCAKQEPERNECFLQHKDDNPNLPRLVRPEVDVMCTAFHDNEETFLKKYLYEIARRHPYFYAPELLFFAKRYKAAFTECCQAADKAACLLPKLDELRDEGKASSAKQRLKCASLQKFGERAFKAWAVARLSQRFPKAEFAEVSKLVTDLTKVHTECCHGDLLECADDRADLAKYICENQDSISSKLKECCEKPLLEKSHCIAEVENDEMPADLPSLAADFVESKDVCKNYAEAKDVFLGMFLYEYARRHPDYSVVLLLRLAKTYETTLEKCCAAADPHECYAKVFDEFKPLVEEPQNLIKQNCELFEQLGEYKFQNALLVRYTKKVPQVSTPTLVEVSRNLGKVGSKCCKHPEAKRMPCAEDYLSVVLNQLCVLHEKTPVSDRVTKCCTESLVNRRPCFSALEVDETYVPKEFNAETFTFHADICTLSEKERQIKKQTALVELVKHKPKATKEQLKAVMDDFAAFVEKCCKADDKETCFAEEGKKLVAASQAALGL

| Structure (SMILES) | Papp at 3 h [1] | HSA Binding (human serum albumin) | EC50 [4] | PFI [5] | solubility [3, 6] | solubility [3, 7] | solubility [3] | EC50 (host THP-1 macrophages) | IC50 [2] | solubility ([3]; aqueous medium) | EC50 (HepG2 cells) | IC50 [4] |
| --- | --- | --- | --- | --- | --- | --- | --- | --- | --- | --- | --- | --- |
| COc1ccc(N2C(=O)c3[nH]nc(CC(C)C)c3C2c2ccc(F)cc2)cc1F (stereo not drawn) [Compound 42, 5-(3-fluoro-4-methoxyphenyl)-4-(4-fluorophenyl)-3-isobutyl-4,5-dihydropyrrolo[3,4-c]pyrazol-6(2H)-one] | 29 ×10⁻⁶ cm/s | 96.9% | 1.3 µM | 8.6 | – | – | – | 25.1 µM | 0.6 µM | 39 µM (≈ 15.5 µg/mL) | 50.1 µM | 1.3 µM |
| CCOc1ccc(N2C(=O)c3[nH]nc(CC(C)C)c3C2c2ccc(F)cc2)cc1 (stereo not drawn) [Compound 19] | 25 ×10⁻⁶ cm/s | 97.5% | 1.6 µM | 8.9 | – | 38 µM (≈ 15 µg/mL) | – | 20 µM | – | – | 50.1 µM | – |
| CCc1ccc(N2C(=O)c3[nH]nc(CC(C)C)c3C2c2ccc(F)cc2)cc1 (stereo not drawn) [Compound 22] | < 1 ×10⁻⁶ cm/s | 97.4% | 4 µM | 9.7 | – | 9 µM (≈ 3.4 µg/mL) | – | 20 µM | – | – | 50.1 µM | – |
| COC1CCC(N2C(=O)c3[nH]nc(CC(C)C)c3C2c2ccc(F)cc2)CC1 (stereo not drawn) [Compound 36] | 57 ×10⁻⁶ cm/s | 92.1% | 25.1 µM | 7.3 | ≥ 450 µM | – | – | > 50 µM | – | – | > 100 µM | – |
| COc1ccc(N2C(=O)c3[nH]nc(CC(C)C)c3C2c2ccc(Br)cc2)cc1 (stereo not drawn) [Compound 48] | 42 ×10⁻⁶ cm/s | 97.2% | 6.3 µM | 9.3 | 9 µM (≈ 3.96 µg/mL) | – | – | 15.8 µM | – | – | 50.1 µM | – |
| COc1ccc(N2C(=O)c3[nH]nc(CC(C)C)c3C2c2cccc(C(F)(F)F)c2)cc1 (stereo not drawn) [Compound 62] | 22 ×10⁻⁶ cm/s | 97.8% | 6.3 µM | 8.9 | 20 µM (≈ 8.59 µg/mL) | – | – | 15.8 µM | – | – | 50.1 µM | – |
| COC(=O)c1ccc(N2C(=O)c3[nH]nc(CC(C)C)c3C2c2ccc(F)cc2)cc1 (stereo not drawn) [Compound 26] | 41 ×10⁻⁶ cm/s | 97.5% | 1.6 µM | 8.5 | – | 26 µM (≈ 10.6 µg/mL) | – | 31.6 µM | – | – | 39.8 µM | – |
| COc1ccc(N2C(=O)c3[nH]nc(CC(C)C)c3C2c2ccc(C(=O)O)cc2)cc1 (stereo not drawn) [Compound 50] | < 0.3 ×10⁻⁶ cm/s | 90.7% | > 50 µM | 4.5 | ≥ 470 µM | – | – | > 50 µM | – | – | > 100 µM | – |
| CC(C)Cc1n[nH]c2c1C(c1ccc(F)cc1)N(CC1CCN(C)C1)C2=O (stereo not drawn) [Compound 40] | < 1 ×10⁻⁶ cm/s | 77.5% | > 50 µM | 4.8 | ≥ 351 µM | – | – | > 50 µM | – | – | > 100 µM | – |
| COc1ccc(N2C(=O)c3[nH]nc(CC(C)C)c3C2c2ccc(F)c(C)n2)cc1 (stereo not drawn) [Compound S13] | 38 ×10⁻⁶ cm/s | 94.4% | 12.6 µM | 8.3 | 305 µM (≈ 120 µg/mL) | – | – | > 50 µM | – | – | > 100 µM | – |
| CC(C)Cc1n[nH]c2c1C(c1ccc(F)cc1)N(C1CCC(N(C)C)CC1)C2=O (stereo not drawn) [Compound 37] | 13 ×10⁻⁶ cm/s | 81.1% | 25.1 µM | 4.6 | ≥ 446 µM | – | – | > 50 µM | – | – | > 100 µM | – |

Second part, led by results:

| Papp at 3 h [1] | HSA Binding (human serum albumin) | EC50 [4] | PFI [5] | solubility [3, 6] | solubility [3, 7] | solubility [3] | Structure (SMILES) | EC50 (host THP-1 macrophages) | IC50 [2] | solubility ([3]; aqueous medium) | EC50 (HepG2 cells) | IC50 [4] |
| --- | --- | --- | --- | --- | --- | --- | --- | --- | --- | --- | --- | --- |
| 23 ×10⁻⁶ cm/s | 76.7% | 15.8 µM | 5.3 | ≥ 433 µM | – | – | CC(C)Cc1n[nH]c2c1C(c1ccc(F)cc1)N(CCN1CCCC1)C2=O (stereo not drawn) [Compound 39] | > 50 µM | 10.4 µM | – | > 100 µM | 15.9 µM |
| 5 ×10⁻⁶ cm/s | 70.5% | > 50 µM | 5.5 | ≥ 340 µM | – | – | COc1ccc(N2C(=O)c3[nH]nc(CC(C)C)c3C2c2ccnnc2)cc1 (stereo not drawn) [Compound S9] | > 50 µM | – | – | > 100 µM | – |
| 30 ×10⁻⁶ cm/s | 97.1% | 0.5 µM | 9.2 | 12 µM (≈ 5.28 µg/mL) | – | – | COc1ccc(N2C(=O)c3[nH]nc(CC(C)C)c3C2c2ccccc2Br)cc1 (stereo not drawn) [Compound 56] | 25.1 µM | – | – | 39.8 µM | – |
| 34 ×10⁻⁶ cm/s | 76.8% | > 50 µM | 6.3 | 273 µM (≈ 99.2 µg/mL) | – | – | COc1ccc(N2C(=O)c3[nH]nc(CC(C)C)c3C2c2ccncn2)cc1 (stereo not drawn) [Compound S8] | > 50 µM | – | – | > 100 µM | – |
| 27 ×10⁻⁶ cm/s | 97.9% | 6.3 µM | 8.9 | – | – | 17 µM (≈ 6.89 µg/mL) | C=C(C)CCCc1n[nH]c2c1C(c1ccc(F)cc1)N(c1ccc(OC)cc1)C2=O (stereo not drawn) [Compound 14] | 20 µM | – | – | 50.1 µM | – |
| 30 ×10⁻⁶ cm/s | 95.9% | 7.9 µM | 8.2 | 8 µM (≈ 2.94 µg/mL) | – | – | COc1ccc(N2C(=O)c3[nH]nc(CC(C)C)c3C2c2cccs2)cc1 (stereo not drawn) [Compound S2] | > 50 µM | – | – | > 100 µM | – |
| 14 ×10⁻⁶ cm/s | 96.2% | 5 µM | 8.7 | 44 µM (≈ 17.5 µg/mL) | – | – | COc1ccc(N2C(=O)c3[nH]nc(CC(C)C)c3C2c2ccc(F)c(F)c2)cc1 (stereo not drawn) [Compound 65, 4-(3,4-difluorophenyl)-3-isobutyl-5-(4-methoxyphenyl)-4,5-dihydropyrrolo[3,4-c]pyrazol-6(1H)-one] | 25.1 µM | – | – | 50.1 µM | – |
| 34 ×10⁻⁶ cm/s | 98.0% | 4 µM | 11.4 | – | – | < 1 µM | COc1ccc(N2C(=O)c3[nH]nc(-c4ccc(CC(C)C)cc4)c3C2c2ccc(F)cc2)cc1 (stereo not drawn) [Compound 17] | 7.9 µM | – | – | 15.8 µM | – |
| 10 ×10⁻⁶ cm/s | 98.0% | 2.5 µM | 9.1 | – | – | 15 µM (≈ 5.9 µg/mL) | COc1ccc(N2C(=O)c3[nH]nc(CCC(C)C)c3C2c2ccc(F)cc2)cc1 (stereo not drawn) [Compound 9] | 31.6 µM | – | – | 79.4 µM | – |
| 59 ×10⁻⁶ cm/s | 96.3% | 12.6 µM | 8.1 | 119 µM (≈ 42.1 µg/mL) | – | – | COc1ccc(N2C(=O)c3[nH]nc(CC(C)C)c3C2C2CCCC2)cc1 (stereo not drawn) [Compound 53] | 20 µM | – | – | > 100 µM | – |
| 29 ×10⁻⁶ cm/s | 95% | 4 µM | 8.4 | 63 µM (≈ 24.7 µg/mL) | – | – | COc1ccc(N2C(=O)c3[nH]nc(CC(C)C)c3C2c2cccc(OC)c2)cc1 (stereo not drawn) [Compound 61] | 20 µM | – | – | 63.1 µM | – |
| 37 ×10⁻⁶ cm/s | 97% | 7.9 µM | 9.1 | 10 µM (≈ 4.4 µg/mL) | – | – | COc1ccc(N2C(=O)c3[nH]nc(CC(C)C)c3C2c2cccc(Br)c2)cc1 (stereo not drawn) [Compound 60] | 25.1 µM | – | – | 39.8 µM | – |
